Test results published in a melting point compilation (Tetko et al.; mined from patent text by program, amines drawn as free bases though some values may be those of a salt).

Question: For `O=c1c(-c2ccccc2)c[nH]n1-c1cccc(C(F)(F)F)c1`, which melting point is on record?
Answer: 210 to 213 °C

Question: Which melting point does the source give for `NCCCCCCC(=O)Nc1cccc(C(=O)NCCC(=O)O)c1` here?
Answer: 236 °C

Question: With `COc1ccc(C(C)=NNc2ccc(C3=NNC(=O)CC3)cc2)cc1` as the molecule, how does the melting point read?
Answer: 204 to 207 °C

Question: With `CCn1nc(Cc2ccc(N)cc2)oc1=O` as the molecule, how does the melting point read?
Answer: 88 to 89 °C

Question: Which melting point does the source give for `O=c1ccccn1CC1(O)CCN(Cc2ccc(F)cc2)CC1` here?
Answer: 154 to 156 °C

Question: For `N#Cc1cc(/C=C/C(c2cc(Cl)c(Cl)c(Cl)c2)C(F)(F)F)ccc1-n1cnc(N(C(=O)C2CC2)C(=O)C2CC2)n1` (stereo unspecified), which melting point is on record?
Answer: 104 to 107 °C

Question: With `CCOC(=O)c1cc(NC(=O)C(CSC(C)=O)Cc2ccc(Cl)cc2)c[nH]1` (stereo unspecified) as the molecule, how does the melting point read?
Answer: 141 to 144 °C

Question: Which melting point does the source give for `O=c1ccn(-c2cccc(C(F)(F)F)c2)nc1-c1conc1-c1ccccc1` here?
Answer: 217 to 219 °C

Question: For `COc1cc2cc(C(C)C)sc2c(Cl)c1Cl`, which melting point is on record?
Answer: < 37 °C

Question: Which melting point does the source give for `CC(C)(C)c1ccc(N)nn1` here?
Answer: 125 to 132 °C

Question: For `CC(C)C1(C)Cc2cc(O)c(Cl)c(Cl)c2C1=O` (stereo unspecified), which melting point is on record?
Answer: 215 °C

Question: For `Cc1cccc2c1C(=O)N(C)Cc1c(C#CC(C)(C)O)ncn1-2`, which melting point is on record?
Answer: 165 to 167 °C

Question: For `COC(=O)CCCOc1cc([N+](=O)[O-])c(COc2ccccc2)cc1OC`, which melting point is on record?
Answer: 96 to 98 °C

Question: For `CS(=O)(=O)OCCCc1cccc(OCc2coc(/C=C/c3ccccc3)n2)c1`, which melting point is on record?
Answer: 75 to 76 °C

Question: Which melting point does the source give for `CC(=O)Nc1ccc2c(c1)CC(=O)N2CCN1CCN(Cc2ccccc2)CC1` here?
Answer: 145 to 147 °C

Question: With `COc1c(-c2ccc3cc(NS(C)(=O)=O)ccc3c2)cc(-n2ccc(=O)[nH]c2=O)cc1C(C)(C)CO` as the molecule, how does the melting point read?
Answer: 256 to 257 °C

Question: Which melting point does the source give for `Nn1cccc1-c1ccccc1` here?
Answer: 80 to 82 °C

Question: With `O=C(c1ccco1)C1C(=O)N(C(=O)Nc2ccc(F)cc2F)c2ccccc21` (stereo unspecified) as the molecule, how does the melting point read?
Answer: 191 to 192 °C

Question: With `FC(F)(F)c1cc(Br)c2cccc(Cl)c2n1` as the molecule, how does the melting point read?
Answer: 62 to 64 °C

Question: For `CN(CCCCCCCNC(=O)NCCSCc1csc(NC(=N)N)n1)CCN(Cc1ccc(F)cc1)c1ccccn1`, which melting point is on record?
Answer: 125 °C

Question: Which melting point does the source give for `CCCC1CCC(C2CCC(C3CCCC(=O)C3)CC2)CC1` (stereo unspecified) here?
Answer: 1.5 °C

Question: With `COc1ccc2c(C=O)c(OCc3ccccc3)ccc2c1` as the molecule, how does the melting point read?
Answer: 115 to 117 °C

Question: With `COC(=O)c1cccc2nc(OC)n(Cc3ccc(-c4ccccc4-c4nc(=O)o[nH]4)cc3)c12` as the molecule, how does the melting point read?
Answer: 215 to 216 °C

Question: For `COc1cc(-n2ccc(C(F)(F)F)cc2=O)c(F)cc1C#N`, which melting point is on record?
Answer: 194 to 196 °C

Question: Which melting point does the source give for `CCCn1c(=O)n(C)c(=O)c2[nH]c(-c3cc(S(=O)(=O)NCCNC)ccc3OCC)c(Cl)c21` here?
Answer: 226 °C

Question: With `CCCCCCCCCCCCCCCCOC(=O)C=CC(=O)NC(N)=O` as the molecule, how does the melting point read?
Answer: 106 °C

Question: For `O=Cc1cc(Br)c(OCCBr)c(Br)c1`, which melting point is on record?
Answer: 84 to 85 °C

Question: For `COc1ccc(Oc2ccc(Cl)cc2[N+](=O)[O-])c(C=O)c1`, which melting point is on record?
Answer: 127 to 128 °C

Question: With `CCOc1c(/C=C\CO)cc(C(C)(C)C)cc1C(C)(C)C` as the molecule, how does the melting point read?
Answer: 93 to 94 °C

Question: With `O=C(c1ccc([N+](=O)[O-])cc1)N1Cc2ccccc2C(c2ccccc2Cl)c2ccccc21` (stereo unspecified) as the molecule, how does the melting point read?
Answer: 178 to 181 °C

Question: For `CN(C)c1ccc(-c2noc([C@H]3CCCN(C(=O)c4ccc(F)cc4)C3)n2)cc1`, which melting point is on record?
Answer: 147 to 153 °C

Question: Which melting point does the source give for `COc1cc2c(cc1OC)-c1c(-c3ccccc3)c(-c3cc(C)c(O)c(C)c3)c(C)n1CC2` here?
Answer: 210 to 214 °C

Question: For `O=C(O)Cc1ccc(NC(=O)C(Cc2ccccc2)NS(=O)(=O)c2ccc(Cl)cc2)cc1` (racemic), which melting point is on record?
Answer: 204 to 206 °C

Question: Which melting point does the source give for `COc1cc(C=C2C(=O)CCc3c2ccc(OC)c3OC)c([N+](=O)[O-])cc1OC` here?
Answer: 70 to 72 °C

Question: Which melting point does the source give for `CSc1cc(SC)c(N)c(SC)c1N` here?
Answer: 114 to 116 °C

Question: Which melting point does the source give for `Clc1cnc2ccc(Cl)c(Cl)c2n1` here?
Answer: 118 to 119 °C

Question: With `COc1cccc(Cn2c(-c3cc(OC)c(OC)c(OC)c3)nc3ccccc32)c1` as the molecule, how does the melting point read?
Answer: 127 °C

Question: Which melting point does the source give for `CSC1C(=O)Nc2c(C(=O)c3ccc(F)cc3)cccc21` (stereo unspecified) here?
Answer: 165 to 168 °C

Question: With `NC(=O)c1cccc2c1CC(NCCCc1c[nH]c3ccc(F)cc13)CO2` (stereo unspecified) as the molecule, how does the melting point read?
Answer: 153 to 155 °C

Question: With `CCOCC(=NNc1ccc(C(F)(F)F)cc1)C(=O)O` as the molecule, how does the melting point read?
Answer: 96 to 99 °C

Question: With `CC(C)/C=c1\[nH]c(=O)/c(=C/c2c[nH]c3ccccc23)[nH]c1=O` as the molecule, how does the melting point read?
Answer: > 300 °C

Question: Which melting point does the source give for `CC(C)c1cc(CCCOc2nn(C)cc2CC(=O)O)n(Cc2ccc(Cl)cc2Cl)n1` here?
Answer: 67 to 68 °C

Question: For `CS(=O)c1n[nH]c2ccc(C(F)(F)F)cc12` (stereo unspecified), which melting point is on record?
Answer: 168 to 170 °C

Question: For `CC(C)(O)CCNC(=O)c1n[nH]cc1NC(=O)c1ccccn1`, which melting point is on record?
Answer: 193 to 194 °C

Question: Which melting point does the source give for `CC[C@@H](Nc1nc(NCc2ccccc2)c2ncn(C(C)C)c2n1)[C@H](C)O` here?
Answer: 42 to 44 °C

Question: For `NC(=O)c1ccc(-c2cnc3[nH]c(=O)n(CCC4CCOCC4)c3n2)cc1`, which melting point is on record?
Answer: 233 to 236 °C

Question: For `CC(C)(C)OC(=O)N[C@@H](C(=O)N1CCC[C@H]1C(=O)NCC1CCc2n[nH]cc2C1)C(c1ccccc1)c1ccccc1` (stereo partly specified), which melting point is on record?
Answer: 113 to 116 °C

Question: Which melting point does the source give for `CC(C)SC(=O)Cc1cc(Oc2ccc(C(F)(F)F)cc2Cl)ccc1[N+](=O)[O-]` here?
Answer: 102 to 104 °C

Question: With `COc1ccc(N2C(=O)C(OC(C)=O)C2c2ccccc2Cl)cc1` (stereo unspecified) as the molecule, how does the melting point read?
Answer: 130 to 132 °C

Question: With `CSc1ncc(C2=NCC(C)(C)O2)cc1Cl` as the molecule, how does the melting point read?
Answer: 113 to 115 °C

Question: With `c1ccc(N=C(N=C(Nc2ccccc2)c2ccccc2)N2CCCC2)cc1` as the molecule, how does the melting point read?
Answer: 246 to 247 °C

Question: With `CC(C)(C)OC(=O)CN(C(=O)CN1C(=O)c2ccccc2C1=O)c1ccccc1Oc1ccccc1` as the molecule, how does the melting point read?
Answer: 145 °C

Question: With `O=C(Nc1ccc2cc(CN3CCCC3)ccc2c1)c1ccc(-c2ccc(Cl)cc2)cc1` as the molecule, how does the melting point read?
Answer: 214 to 217 °C

Question: With `Cc1cc(NC(=O)c2c(Cl)cccc2Cl)c2nccc(-n3ccnc3)c2c1` as the molecule, how does the melting point read?
Answer: 260 to 261 °C

Question: For `CC1ON=C(c2ccc(F)cc2)C1CN(O)C(N)=O` (stereo unspecified), which melting point is on record?
Answer: 149 to 151 °C

Question: Which melting point does the source give for `Nc1cc(N2CCOCC2)cc(C(F)(F)F)c1` here?
Answer: 96 to 97 °C

Question: Which melting point does the source give for `CN1C(=O)C(c2ccc(OC(F)F)cc2)(c2cccc(OC(F)F)c2)N=C1N` (stereo unspecified) here?
Answer: 52 to 54 °C

Question: With `O=C(O)c1ccc2c(c1)Sc1ccc(F)cc1C=C2` as the molecule, how does the melting point read?
Answer: 273 to 275 °C

Question: For `O=C(Nc1cccnc1Nc1ccc(CCNC[C@H](O)COc2ccc(O)cc2)cc1)c1ccccc1`, which melting point is on record?
Answer: 97 to 99 °C

Question: With `Oc1ccccc1-c1nccs1` as the molecule, how does the melting point read?
Answer: 215 °C

Question: Which melting point does the source give for `O=C(NCc1ccc(Cl)cc1)c1cn2c3c(cc(CCCO)cc3c1=O)OCC2(CO)CO` here?
Answer: 173 to 174 °C

Question: With `N=C(N)NC1=NC(=O)C(=Cc2cccc(-c3cc(F)c(O)c(C45CC6CC(CC(C6)C4)C5)c3)c2)S1` as the molecule, how does the melting point read?
Answer: 288 to 290 °C

Question: For `CN1N=C(c2ccccc2)C(C)(Cc2ccccc2)NC1=O` (stereo unspecified), which melting point is on record?
Answer: 174 to 175 °C

Question: For `COc1ccc(-c2cc3cc(F)c(F)cc3[nH]2)cc1N`, which melting point is on record?
Answer: 210 to 211 °C

Question: For `CN(Cc1ccc2c(Br)c(OCc3nnn[nH]3)ccc2c1)C(=O)c1oc2ccccc2c1CCc1ccccc1`, which melting point is on record?
Answer: 56 to 59 °C

Question: For `Cc1cc(Oc2c(Cl)cc(C(F)(F)F)cc2Cl)nn1C(=O)NCCO`, which melting point is on record?
Answer: 124 to 126 °C

Question: Which melting point does the source give for `O=C(NNS(=O)(=O)c1ccccc1)c1cccc2cccnc12` here?
Answer: 173 to 175 °C

Question: With `O=C(c1c[nH]c(=O)[nH]1)c1cccs1` as the molecule, how does the melting point read?
Answer: 339 to 342 °C

Question: With `N#CSc1cc(Cl)c(Cl)c2sc(NC(=O)Nc3ccc(Cl)cc3)nc12` as the molecule, how does the melting point read?
Answer: 238 to 239 °C

Question: Which melting point does the source give for `C#CCON=C(C(=O)O)c1nc(NC(=O)C(F)(F)F)sc1Cl` here?
Answer: 178 to 180 °C

Question: For `Cc1cc(F)ccc1-c1nc(OCCO)nc2c1CNC(=O)N2c1c(F)cccc1F`, which melting point is on record?
Answer: 172 to 175 °C
